# Assay results: PMC3722296 (PLoS ONE, 2013)
# “Also recorded” adds a separate entry of the source. Where no end group is shown, it is not given here.
# How the values were obtained:
# [1] = tested on: S. aureus S1; experiment: Antibiotic susceptibility, agar disc diffusion; assay type: cell-based, Staphylococcus aureus; conditions: agar disc diffusion method
# Procedure: (§1) S1 was isolated from the blood of a patient and S2 was isolated from the sputum of a neonate. After isolation and identification, S. aureus strains were assessed for their susceptibility to various antibiotics, using the agar disc diffusion method. S1 was found Methicillin resistant (MRSA) and is also resistant to Amoxicillin, Oxacillin, Amikacin, Tobramycin, Fluoroquinolones, Erythromycin and Clindamycin. However, it was susceptible to Gentamicin, Synercid, Co-trimoxazole, Rifampicin, Fusidic acid, Vancomycin, Teicoplanin and Linezolid.
# [2] = S. aureus ATCC25923 culture supernatant with protease inhibitors (Pi+S25923); conditions: S. aureus ATCC25923, 37°C, up to 24 h
# [3] = S. aureus ATCC25923 culture supernatant (S25923), MHB medium, filtered; conditions: S. aureus ATCC25923, 37°C, up to 24 h
# [4] = S. aureus S2 (MSSA) culture supernatant, MHB medium, filtered; conditions: 37°C, up to 24 h
# [5] = S. aureus ATCC49775 culture supernatant (S49775), MHB medium, filtered; conditions: S. aureus ATCC49775, 37°C, up to 24 h
# [6] = S. aureus S1 culture supernatant with protease inhibitors (Pi+S1); conditions: S. aureus S1 (MRSA), 37°C, up to 24 h
# [7] = S. aureus S1 (MRSA) culture supernatant, MHB medium, filtered; conditions: 37°C, up to 24 h
# [8] = S. aureus ATCC49775 culture supernatant with protease inhibitors (Pi+S49775); conditions: S. aureus ATCC49775, 37°C, up to 24 h
# [9] = S. aureus S2 culture supernatant with protease inhibitors (Pi+S2); conditions: S. aureus S2 (MSSA), 37°C, up to 24 h
# [10] = MHB medium without supernatant, 37°C, 24 h; RP-HPLC
# Procedure: (§4) Triplicate wells were treated for each concentration of peptide. In parallel, several controls were performed: with and without peptides in MHB medium.
# (§5) The synthetic peptides treated with bacterial supernatants and different controls including culture medium, bacterial supernatants, and synthetic peptides were separated using a Dionex HPLC system (Ultimate 3000; Sunnyvale, CA USA) on a Nucleosil reverse-phase 300–5C18-column (4×250 mm; particle size, 5 µm; porosity, 300 Å) (Macherey Nagel Hoerdt, France). Absorbance was monitored at 214 nm, and the solvent system consisted of 0.1% (v/v) TFA in water (solvent A) and 0.09% (v/v) TFA in 70% (v/v) acetonitrile-water (solvent B). Elution was performed at a flow rate of 700 µL/min, with the gradient as indicated on chromatograms. Fractions were collected with one min time interval. They were subsequently concentrated by evaporation by using a speed-vac, however not allowing them to dry completely.
# [11] = tested on: staphylococcal proteases released into bacterial supernatants; conditions: 37°C, 24 h; for degradation by culture supernatant of S2 / degradation by culture supernatants S49775, S25923 and S1: no protease inhibitors, RP-HPLC 214 nm, sequencing, MALDI-TOF, triplicate wells; for degradation by four strain supernatants in presence of protease inhibitors: protease inhibitor cocktail + 100 µM 1–10 phenanthroline
# Procedure: S. aureus strains were precultured and plated on the agar plates and cultivated for 24 h at 37°C. After incubation, one colony per isolate was transferred to 10 mL of the MHB medium and incubated at 37°C for about 30 h to late stationary growth phase. After incubation, cultures were centrifuged at 10,000×g for 15 min and supernatants were filtered using a 0.22 µM Millex®-GV (Millipore, Carrigtwohill, Ireland) to eliminate bacteria. The supernatants were stored at −20°C until further use. In order to check sterility, 1 mL of each supernatant was incubated at 37°C for 48 h. Absence of a colony was interpreted as lack of viable bacteria.
# as §4
# For which, protease inhibitor cocktail (complete protease inhibitors except metalloproteases) (Roche Diagnostic GmbH, Mannheim, Germany) supplemented with 100 µM of 1–10 phenanthroline (metalloprotease inhibitor) (Sigma Aldrich GmbH, Steinheim, Germany) was added to bacterial supernatants before the addition of synthetic peptides. The whole suspension was incubated at 37°C for 24 h prior to being analyzed by RP-HPLC.
# as §5
# The N-terminal sequence of purified peptides was determined by automatic Edman degradation analysis on a Procise microsequencer (Applied Biosystems, Courtaboeuf, France). Samples purified by HPLC were loaded on polybrene-treated glass-fiber filters. Phenylthiohydantoin-amino acids (Pth-Xaa) were identified by chromatography on a C18 column (PTH C-18, 2.1 mm×200 mm).
# Mass determination was carried out on a Brucker BIFLEX™ Matrix-Assisted Laser Desorption Ionization – Time-Of-Flight mass spectrometer (MALDI-TOF) (equipped with the high resolution optics (SCOUT™) with X–Y multi-sample probe, a gridless reflector and with the HIMAS™ linear detector). With a maximum accelerating potential of 30 kV, the system can be operated either in linear or the reflective mode. Ionization was carried out with a 337-nm beam from a nitrogen laser with a repetition rate of 3 Hz. The output signal from the detector was digitized at a sampling rate of 250 MHz in linear mode and 500 MHz in reflector mode using a 1 GHz digital oscilloscope (Lecroy model). Brucker supplied software hosted in Sun sparcworkstation was used for data processing and the instrumental control. […] These studies were realized using the matrix α-cyano-4-hydroxycinnamic acid, obtained from Sigma, and prepared as a saturated solution in acetone. A total of 1–2 µl of the sample matrix aliquot solution was deposited on the probe and dried by ambient air. A thin layer matrix crystal was obtained after rapid spreading and evaporation. […] A micromolar analyte solution was applied to the matrix and allowed to dry under moderate vacuum. The whole preparation was washed by 1 μl of trifluoroacetic acid (0.5%) aqueous solution. This cleaning procedure helps remove remaining alkaline cations and often leads to an increase in sensitivity.
# [12] = tested on: S. aureus ATCC25923; assay type: cell-based, Staphylococcus aureus; conditions: ATCC25923, 24 h, pH 7.3
# Procedure: (§2) Different S. aureus strains described above were first pre-cultured aerobically at 37°C for 20 h in a Mueller-Hinton-Broth (MHB) medium, pH 7.3 (Difco Laboratories, Detroit, MI). Bacteria were suspended at absorbance of 0.001 at 620 nm in the MHB medium. […] Ten µl final volumes (10–200 µg/mL) of synthetic peptides (LL-37, bCAT, hCAT and bCTL) were incubated in microtitration plates with 90 µl of a mid-logarithmic phase culture of bacteria, with a starting absorbance of 0.001 at 620 nm. In the initial inoculi, bacteria were quantified by the agar plate spreading method which was 5×10^5 colony forming units (CFU)/mL. Tetracycline (10 mg/L) and Cefotaxime (0.1 mg/L) were used as positive controls. Microbial growth was assessed by the increase of absorbance after 24 h incubation at 37°C., [29] The A620 nm value of control cultures growing in the absence of peptide and antibiotics was defined as 100% growth. A620 nm zero with the antibiotics (Tetracycline and Cefotaxime) was taken as 100% inhibition. Absence of bacterial growth was verified by agar plate spreading. Each assay was performed in triplicates.
# (§3) The MIC values (µg/mL) are reported as means of three independent experiments. To determine significance, between different peptides (rows) and bacterial strains (columns), one way ANOVA was used. Overall significance and correlation was evaluated by 4×4 factorial ANOVA for independent samples. Significance was accepted at p≤0.05.
# [13] = tested on: S. aureus ATCC49775; assay type: cell-based, Staphylococcus aureus; conditions: ATCC49775, 24 h, pH 7.3
# Procedure: as §2, §3
# [14] = tested on: S. aureus S1 (MRSA); assay type: cell-based, Staphylococcus aureus; conditions: S1, 24 h, pH 7.3
# Procedure: as §1, §2, §3
# [15] = tested on: S. aureus S2 (MSSA); assay type: cell-based, Staphylococcus aureus; conditions: S2, 24 h, pH 7.3
# Procedure: as §1, §2, §3
# [16] = tested on: S. aureus; experiment: Antibacterial activity against S. aureus, (strains together or not specified); assay type: cell-based, Staphylococcus aureus
# Procedure: as §2
# [17] = MHB medium; conditions: 37°C, up to 24 h
# [18] = tested on: S. aureus S2; experiment: Antibiotic susceptibility, agar disc diffusion; assay type: cell-based, Staphylococcus aureus; conditions: agar disc diffusion method
# Procedure: as §1
# [19] = tested on: human erythrocytes; conditions: cited from earlier work
# Source text: Due to continuous resistance development by S. aureus, the interest for natural AMPs is increasing because some of them display potent antibacterial activity. However, secondary reactions such as hemolytic activity, [36] limit their use as systemic anti-infective drugs. Until recently, no such reaction was reported for the antimicrobial Cgs-derived peptides in the literature. Several CgA-derived peptides were previously characterized to display antimicrobial properties, [9] however, data concerning killing of S. aureus is not reported. CAT was previously reported, to be active against diff ...
compound,measurement,setting,value
NCC[C@H](O)C(=O)N[C@@H]1C[C@H](N)[C@@H](O[C@H]2O[C@H](CN)[C@@H](O)[C@H](O)[C@H]2O)[C@H](O)[C@H]1O[C@H]1O[C@H](CO)[C@@H](O)[C@H](N)[C@H]1O [Amikacin],susceptibility of strain S1,[1],resistant
RSMRLSFRARGYGFR,not cleaved,[2],remains unaffected by S. aureus supernatants with or without protease inhibitors
same,not cleaved,[3],not degraded by any of the staphylococcal strains tested
same,not cleaved,[4],not degraded by any of the staphylococcal strains tested
same,not cleaved,[5],not degraded by any of the staphylococcal strains tested
same,not cleaved,[6],remains unaffected by S. aureus supernatants with or without protease inhibitors
same,not cleaved,[7],not degraded by any of the staphylococcal strains tested
same,not cleaved,[8],remains unaffected by S. aureus supernatants with or without protease inhibitors
same,not cleaved,[9],remains unaffected by S. aureus supernatants with or without protease inhibitors
CNC(C)C1CCC(N)C(OC2C(N)CC(N)C(OC3OCC(C)(O)C(NC)C3O)C2O)O1 (centres unmarked) [Gentamicin],susceptibility of strain S1,[1],susceptible
NC[C@H]1O[C@H](O[C@H]2[C@H](O)[C@@H](O[C@H]3O[C@H](CO)[C@@H](O)[C@H](N)[C@H]3O)[C@H](N)C[C@@H]2N)[C@H](N)C[C@@H]1O [Tobramycin],susceptibility of strain S1,[1],resistant
"SSMKLSFRARAYGFRGPGPQL [hCAT, catestatin]",processing in MHB medium,[10],not cleaved
same,degradation by culture supernatant of S2,[11]; peptide at MIC concentration,completely cleaved
same,"degradation by culture supernatants S49775, S25923 and S1",[11]; peptide at MIC concentration,partially processed
same,MIC,[12],135 µg/mL
same,MIC,[13],125 µg/mL
same,MIC,[14],130 µg/mL
same,MIC,[15],150 µg/mL
FLE-RSMRLSFRARG [shorter peptide lacking the C-terminal end (YGFR) of CTL],concentration at which antibacterial activities are displayed,[16]; data not shown,200 µg/mL
CN[C@H](CC(C)C)C(=O)N[C@H]1C(=O)N[C@@H](CC(N)=O)C(=O)N[C@H]2C(=O)N[C@H]3C(=O)N[C@H](C(=O)N[C@H](C(=O)O)c4cc(O)cc(O)c4-c4cc3ccc4O)[C@H](O)c3ccc(c(Cl)c3)Oc3cc2cc(c3O[C@@H]2O[C@H](CO)[C@@H](O)[C@H](O)[C@H]2O[C@H]2C[C@](C)(N)[C@H](O)[C@H](C)O2)Oc2ccc(cc2Cl)[C@H]1O [Vancomycin],susceptibility of strain S1,[1],susceptible
CC1(C)S[C@@H]2[C@H](NC(=O)[C@H](N)c3ccc(O)cc3)C(=O)N2[C@H]1C(=O)O [Amoxicillin],susceptibility of strain S1,[1],resistant
Teicoplanin,susceptibility of strain S1,[1],susceptible
Cc1onc(-c2ccccc2)c1C(=O)N[C@@H]1C(=O)N2[C@@H]1SC(C)(C)[C@@H]2C(=O)O [Oxacillin],susceptibility of strain S1,[1],resistant
CO[C@H]1/C=C/O[C@@]2(C)Oc3c(C)c(O)c4c(O)c(c(/C=N/N5CCN(C)CC5)c(O)c4c3C2=O)NC(=O)/C(C)=C\C=C\[C@H](C)[C@H](O)[C@@H](C)[C@@H](O)[C@@H](C)[C@H](OC(C)=O)[C@@H]1C [Rifampicin],susceptibility of strain S1,[1],susceptible
CCC[C@@H]1C[C@@H](C(=O)N[C@@H]([C@H]2O[C@H](SC)[C@H](O)[C@@H](O)[C@H]2O)[C@H](C)Cl)N(C)C1 [Clindamycin],susceptibility of strain S1,[1],resistant
Co-trimoxazole,susceptibility of strain S1,[1],susceptible
RSMRLSFRARGYGFRGPGLQL,not cleaved,[2],not cleaved by any of the four strain supernatants tested in presence of protease inhibitors
same,cleaved bond,[3],L348-S349
same,cleaved bond,[4],S349-F350; also recorded: G356-F357
same,cleaved bond,[5],L348-S349
same,not cleaved,[6],not cleaved by any of the four strain supernatants tested in presence of protease inhibitors
same,cleaved bond,[7],L348-S349
same,not cleaved,[8],not cleaved by any of the four strain supernatants tested in presence of protease inhibitors
same,not cleaved,[17],"In MHB medium, bCAT was not processed"
same,not cleaved,[9],not cleaved by any of the four strain supernatants tested in presence of protease inhibitors
SSMKLSFRARGYGFRGPGPQL,cleaved bond,[3],L356-S357
same,cleaved bond,[4],G364-F365; also recorded: S357-F358
same,cleaved bond,[5],L356-S357
same,cleaved bond,[7],L356-S357
same,not cleaved,[17],"In presence of MHB medium, hCAT was not cleaved"
"FLE-RSMRLSFRARGYGFR [FLE-CTL, CTL derived peptide with a hydrophobic N-terminal end]",antibacterial activity against S. aureus,"[16]; at 400 µg/mL, recent experiments",inactive
CC[C@H]1OC(=O)[C@H](C)[C@@H](O[C@H]2C[C@@](C)(OC)[C@@H](O)[C@H](C)O2)[C@H](C)[C@@H](O[C@@H]2O[C@H](C)C[C@H](N(C)C)[C@H]2O)[C@](C)(O)C[C@@H](C)C(=O)[C@H](C)[C@@H](O)[C@]1(C)O [Erythromycin],susceptibility of strain S1,[1],resistant
COc1cccc(OC)c1C(=O)N[C@@H]1C(=O)N2[C@@H]1SC(C)(C)[C@@H]2C(=O)O [Methicillin],susceptibility of strain S1,[1],resistant
same,susceptibility of strain S2,[18],susceptible
CC(=O)O[C@H]1C[C@@]2(C)[C@@H](C[C@@H](O)[C@H]3[C@@]4(C)CC[C@@H](O)[C@@H](C)[C@@H]4CC[C@@]32C)/C1=C(\CCC=C(C)C)C(=O)O [Fusidic acid],susceptibility of strain S1,[1],susceptible
"RSMRLSFRARGYGFRGPGLQL [bCAT, catestatin]",processing in MHB medium,[10],not processed
same,degradation by culture supernatant of S2,[11]; peptide at MIC concentration,largely cleaved
same,"degradation by culture supernatants S49775, S25923 and S1",[11]; peptide at MIC concentration,processed
same,degradation by four strain supernatants in presence of protease inhibitors,[11]; RP-HPLC,not cleaved
same,MIC,[12],100 µg/mL
same,MIC,[13],100 µg/mL
same,MIC,[14],100 µg/mL
same,MIC,[15],115 µg/mL
CC(=O)NC[C@H]1CN(c2ccc(N3CCOCC3)c(F)c2)C(=O)O1 [Linezolid],susceptibility of strain S1,[1],susceptible
"RSMRLSFRARGYGFR [bCTL, cateslytin]",hemolytic activity,[19],not hemolytic
same,degradation by any of the staphylococcal strains tested (four supernatants),"[11]; ATCC49775, ATCC25923, S1, S2 supernatants, peptide at MIC concentration, RP-HPLC",not degraded
same,degradation by four strain supernatants in presence of protease inhibitors,[11]; RP-HPLC,remains unaffected
same,MIC value against different strains of S. aureus,"[16]; across ATCC49775, ATCC25923, S1, S2",37 to 45 µg/mL
same,MIC,[12],40 µg/mL
same,MIC,[13],37 µg/mL
same,MIC,[14],37 µg/mL
same,MIC,[15],45 µg/mL
